Eight compounds from patent publication US5721245A, “4-[3-indolyl]-1H-pyrrolone” (Hoffmann-La Roche Inc., priority 1989, dated 1998) can be followed below.

Each structure is given as a SMILES string. Counter-ions that a name gives are not always drawn.

The test has as its target protein kinase C. The test is described as follows: Inhibition of protein kinase C in vitro (protein kinase-induced incorporation of 32P from [γ-32P]ATP into histone). Type of test: biochemical. The note with it: concentration which reduces by 50% the protein kinase-induced incorporation of 32P from [γ-32P]ATP into histone. The source says:
The IC50 FIGURES in the following Table are that concentration of test compound which reduces by 50% the protein kinase-induced incorporation of ^32 P from [γ-^32 P]ATP into histone.
The term IC50 denotes the point on the concentration scale where inhibition reaches its midpoint. Lower therefore signals inhibition by little substance. With `Cn1cc(C2=C(c3c4n(c5ccccc35)CCN(C(=O)CN)C4)C(=O)NC2=O)c2ccccc21` [3-[2-(aminoacetyl)-1,2,3,4-tetrahydropyrazino[1,2-a]indol-10-yl]-4-(1-methyl-3-indolyl)-1H-pyrrole-2,5-dione hydrochloride], the concentration for half-maximal inhibition (IC50) amounted to 0.05 µM.

Take `Cn1cc(C2=C(c3c4n(c5ccccc35)CCC(CN)C4)C(=O)NC2=O)c2ccccc21` (centres unmarked) [3-[8-(aminomethyl)-6,7,8,9-tetrahydropyrido[1,2-a]indol-10-yl]-4-(1-methyl-3-indolyl)-1H-pyrrole-2,5-dione hydrochloride]: the IC50 was 0.008 µM.

`Cn1cc(C2=C(c3c4n(c5ccccc35)CCC(C(=N)N)C4)C(=O)NC2=O)c2ccccc21` (centres unmarked) [3-[8-amidino-6,7,8,9-tetrahydropyrido[1,2-a]indol-10-yl]-4-(1-methyl-3-indolyl)-1H-pyrrole-2,5-dione hydrochloride] returned an IC50 of 0.06 µM.

In the case of `CN(C)CC1Cc2c(C3=C(c4cn(C)c5ccccc45)C(=O)NC3=O)c3ccccc3n2C1` (centres unmarked) [3-[2,3-dihydro-2-(dimethylaminomethyl)-1H-pyrrolo[1,2-a]indol-9-yl]-4-(1-methyl-3-indolyl)-1H-pyrrole-2,5-dione trifluoromethanesulphonate], half-maximal inhibition (IC50) was put at 0.02 µM.

`Cn1cc(C2=C(c3c4n(c5ccccc35)CCC(CN3CCCCC3)C4)C(=O)NC2=O)c2ccccc21` (centres unmarked) [3-[6,7,8,9-tetrahydro-8-[(1-piperidino)methyl]pyrido[1,2-a]indol-10-yl]-4-(1-methyl-3-indolyl)-1H-pyrrole-2,5-dione] came in with an IC50 of 0.03 µM.

`Cn1cc(C2=C(c3c4n(c5ccccc35)CC(CN)CC4)C(=O)NC2=O)c2ccccc21` (centres unmarked) [3-[7-(aminomethyl)-6,7,8,9-tetrahydropyrido[1,2-a]indol-10-yl]-4-(1-methyl-3-indolyl)-1H-pyrrole-2,5-dione] showed an IC50 of 0.015 µM.

The compound `Cn1cc(C2=C(c3c4n(c5ccccc35)CC(CSC(=N)N)CC4)C(=O)NC2=O)c2ccccc21` (centres unmarked) [3-[7-(amidinothiomethyl)-6,7,8,9-tetrahydropyrido[1,2-a]indol-10-yl]-4-(1-methyl-3-indolyl)-1H-pyrrole-2,5-dione methanesulfonate] yielded an IC50 of 0.01 µM.

For `Cn1cc(C2=C(c3c4n(c5ccccc35)CC(CCN)CC4)C(=O)NC2=O)c2ccccc21` (centres unmarked) [3-[7-(2-aminoethyl)-6,7,8,9-tetrahydropyrido[1,2-a]indol-10-yl]-4-(1-methyl-3-indolyl)-1H-pyrrole-2,5-dione hydrochloride], the IC50 is 0.02 µM.
